Test results: PubChem BioAssay (NCI)
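Method: 48-hour compound exposure of cells in 96-well plates, five concentrations, linear interpolation of endpoints. GI50: concentration for 50% inhibition of growth. TGI: concentration producing complete growth inhibition.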 Where a SMILES comes first, the peptide text is derived from it. [ ]: non-standard residue; d: D form.

Tests used:
Test in all cases: NCI tumour cell line growth inhibition, 48 h
T-47D breast = test system: T-47D breast
U251 CNS = test system: U251 CNS
A498 renal = test system: A498 renal
SNB-75 CNS = test system: SNB-75 CNS
IGROV1 ovarian = test system: IGROV1 ovarian
NCI-H226 lung = test system: NCI-H226 lung
HCT-15 colon = test system: HCT-15 colon
SF-268 CNS = test system: SF-268 CNS
UO-31 renal = test system: UO-31 renal
SNB-19 CNS = test system: SNB-19 CNS

| SMILES | GI50 (T-47D breast) [µM] | TGI (T-47D breast) [µM] | GI50 (U251 CNS) [µM] | TGI (U251 CNS) [µM] | GI50 (A498 renal) [µM] | TGI (A498 renal) [µM] | GI50 (SNB-75 CNS) [µM] | TGI (SNB-75 CNS) [µM] | GI50 (IGROV1 ovarian) [µM] | TGI (IGROV1 ovarian) [µM] | GI50 (NCI-H226 lung) [µM] | TGI (NCI-H226 lung) [µM] | GI50 (HCT-15 colon) [µM] | TGI (HCT-15 colon) [µM] | GI50 (SF-268 CNS) [µM] | TGI (SF-268 CNS) [µM] | GI50 (UO-31 renal) [µM] | TGI (UO-31 renal) [µM] | TGI (SNB-19 CNS) [µM] | GI50 (SNB-19 CNS) [µM] |
| --- | --- | --- | --- | --- | --- | --- | --- | --- | --- | --- | --- | --- | --- | --- | --- | --- | --- | --- | --- | --- |
| N#Cc1cc2c(cc1Cl)SC(=Nc1ccccc1)N(S(=O)(=O)c1ccc(Br)s1)S2(=O)=O | 24.3 | 75 | 19.4 | 42.5 | 21.9 | 38 | 24 | 51.7 | 12.8 | 31.1 | 28.8 | 55.8 | 17.9 | 38.8 | 20.6 | 47.2 | 15.1 | 36.4 |  |  |
| O=C1C(=Cc2ccc(F)cc2)C(=O)c2ccccc21 |  |  |  | > 100 |  | > 100 |  | 95.4 |  | > 100 |  | > 100 |  | > 100 |  | > 100 |  | > 100 | > 100 |  |
| c1ccc(-c2cc3n4c(-c5ccccc5)nn(-c5ccccc5)c4cnc-3n2)cc1 |  |  | 7.85 | > 50 | 12.1 | > 50 | 5.39 | 17.8 | > 50 | > 50 | > 50 | > 50 | > 50 | > 50 | 10.1 | > 50 | > 50 | > 50 | > 50 | 12.5 |
| CCSc1nc(N)c2cnn(CC)c2n1 | 17.3 | > 100 | 4.12 | 86 | 3.7 | 22.8 |  |  | 2.14 | 9.13 | 3.41 | 30.9 | 6.21 | 25.3 | 23.3 | 66.7 | 7.24 | > 100 | > 100 | 30.2 |
| CC1=C2C3OC(=O)C(C)C3C(O)C[C@@]2(C)C(=O)CC1 (stereo partly specified) |  |  |  | > 100 |  | > 100 |  | > 100 |  | > 100 |  | > 100 |  | > 100 |  | > 100 |  | > 100 | > 100 |  |
| O=[N+]([O-])c1ccc2nc(-c3ccc(Cl)cc3)[nH]c2c1 |  | 55.7 |  |  |  |  |  | 68.5 |  | 89.5 |  | 58 |  | 29.1 |  | 37.5 |  | 59.7 | 80.1 |  |
| NC1=Nc2ccccc2Sc2ccccc21 |  |  |  | > 100 |  | > 100 |  | 53.2 |  | > 100 |  | > 100 |  | > 100 |  | > 100 |  | > 100 | > 100 |  |
| Cc1cc2nc(-c3ccc(O)c(O)c3)n(Cc3ccc(O)c(O)c3)c2cc1C | 31.8 | > 100 | 5 | > 100 | 77.2 | > 100 |  |  | 18.1 | > 100 | 18.7 | 35 | 7.1 | 35.8 | 18.5 | 84.3 | 64.3 | > 100 | > 100 | 65 |
| CN(C)C(=S)/N=c1\ss/c(=N\S(=O)(=O)c2ccccc2)n1C |  |  |  | > 100 |  | > 100 |  | > 100 |  | > 100 |  | > 100 |  | > 100 |  | > 100 |  | > 100 | > 100 |  |
| CCOC(=O)CN1C(=O)C(=O)N(c2ccc(OC)c3ccccc23)C1=O |  | > 100 |  | > 100 |  |  |  | > 100 |  |  |  | > 100 |  | > 100 |  | > 100 |  | > 100 | > 100 |  |
| CN1CCN(c2nc3cc(F)ccc3n3cccc23)CC1 |  | > 100 |  | > 100 |  |  |  | 90.7 |  | 87.6 |  | 54.1 |  | > 100 |  | > 100 |  | > 100 | > 100 |  |
| CSc1nc2ccc(C)cc2cc1/C=C1/C=C(c2ccccc2)NC1=O | 1.66 | 24.5 | 0.602 | 3.68 |  |  | 2.81 | 14.8 | 2.71 | 24.1 | 7.3 | > 100 | 14 | > 100 | 3.16 | 48 | 2.58 | 12.4 | 33.5 | 4.6 |
| CC(=O)/C(=C/N1CCN(C(=O)c2ccco2)C1=S)C(=O)c1ccccc1 | 4.29 | > 50 | 13.4 | > 50 |  |  | 10.9 | 35.9 | 10.9 | 28.4 |  |  | 4.71 | 18.9 | 10.7 | 27 | 8.8 | 18.1 | > 50 | 16.3 |
| COc1ccc2c(c1)C=CC1C2CC[C@]2(C)C(NC(=O)/C=C/c3ccc(O)c(O)c3)CCC12 (stereo partly specified) | 12.2 | 29 |  |  | 19.9 | 53.6 | 6.01 | 20.5 | 5.93 | 24.7 | 15.3 | 41.3 | 3.05 | 13.3 | 17.2 | 33 | 10.2 | 27.3 | 19.6 | 5.41 |
| Cc1c(C2CCSc3ccccc3N2)sc2ccccc12 (stereo unspecified) |  | > 100 |  | > 100 |  |  |  | > 100 |  | > 100 |  | > 100 |  | > 100 |  | > 100 |  | > 100 | > 100 |  |
| CSCC[C@H](NC(=O)[C@@H](N)CC(N)=O)C(=O)N[C@@H](Cc1c[nH]c2ccccc12)C(=O)N[C@@H](CCC(N)=O)C(=O)N[C@@H](CCC(=O)O)C(=O)N[C@H](C(=O)NCC(=O)N[C@@H](CCCCN)C(=O)N[C@H](C)C(=O)O)C(C)C (H-NMWQEVGK[dA]-OH) |  | > 100 |  | > 100 |  | > 100 |  | > 100 |  | > 100 |  | > 100 |  | > 100 |  | > 100 |  |  | > 100 |  |
| Cc1cn2cc(-c3ccc4c(c3)CC(=O)N4)nc2s1 | 43.4 | > 100 | > 100 | > 100 | > 100 | > 100 | > 100 | > 100 | > 100 | > 100 | > 100 | > 100 | 67 | > 100 |  |  | > 100 | > 100 | > 100 | > 100 |
